In PMC6244159, “Structure and Function Studies of Asian Corn Borer Ostrinia furnacalis Pheromone Binding Protein2” (Scientific Reports, 2018):

Biological target: T1, OfurPBP2 (Ostrinia furnacalis pheromone binding protein 2) (Ostrinia furnacalis, UniProt E7CCA0)
T1 construct: gene PBP2; full-length OfurPBP2, recombinant soluble (E. coli Origami 2), delipidated, pH 6.5
T1 sequence (E7CCA0 23-166): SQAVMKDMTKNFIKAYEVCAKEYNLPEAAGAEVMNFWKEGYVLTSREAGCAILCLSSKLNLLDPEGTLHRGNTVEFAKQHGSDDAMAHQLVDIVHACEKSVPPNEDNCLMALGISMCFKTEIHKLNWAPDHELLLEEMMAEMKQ
Assay: fluorescence titration of the NPN probe (emission at […] nm), single-site fit

Work on c1ccc(Nc2cccc3ccccc23)cc1 [N-phenyl-1-naphthylamine] yielded a Kd of 6.49 ± 1.01 µM.
